Laboratory results published in ChEMBL document CHEMBL4024727, “Synthesis and antimycobacterial screening of new thiazolyl-oxazole derivatives” (Eur J Med Chem, 2017).

Each molecule was assayed on Bacillus subtilis (assay: Growth inhibition of Bacillus subtilis NCIM 2162 at 1 ug/ml measured after 12 hrs relative to control). Details: NCIM 2162, 12 h, read-out: GI.
Format: functional
Cc1nc(-c2ccc(F)cc2)oc1-c1csc(-c2ccc(Br)cc2)n1 showed an inhibition of growth at 1 µg/mL of 46.5%. Molecule Cc1nc(-c2ccc(F)cc2)oc1-c1csc(-c2ccccc2)n1 has an inhibition of growth at 1 µg/mL of 21%.

Each molecule was assayed on Staphylococcus aureus (assay: Growth inhibition of Staphylococcus aureus NCIM 2602 at 30 ug/ml measured after 12 hrs relative to control). Details: NCIM 2602, 12 h, read-out: GI.
Format: functional
For Cc1nc(-c2ccc(F)cc2)oc1-c1csc(-c2ccc(Br)cc2)n1, the inhibition of growth at 30 µg/mL was 67.8%. With Cc1nc(-c2ccc(F)cc2)oc1-c1csc(-c2ccccc2)n1 the inhibition of growth at 30 µg/mL was 58.8%.

What follows are molecules tested on Escherichia coli (assay: Growth inhibition of Escherichia coli NCIM 2576 at 10 ug/ml measured after 8 hrs relative to control). Details: NCIM 2576, 8 h, read-out: GI.
Format: functional
Cc1nc(-c2ccc(F)cc2)oc1-c1csc(-c2ccc(Br)cc2)n1 showed an inhibition of growth at 10 µg/mL of 60.7%. Cc1nc(-c2ccc(F)cc2)oc1-c1csc(-c2ccccc2)n1 was tested, and the inhibition of growth at 10 µg/mL was 47.8%.

Each molecule was assayed on Mycobacterium tuberculosis (assay: Antitubercular activity against Mycobacterium bovis BCG ATCC 35743 dormant stage by nitrate reductase based two-fold dilution assay). Details: BCG str. ATCC 35743.
Format: functional
For Cc1nc(-c2ccc(F)cc2)oc1-c1csc(-c2ccc(Br)cc2)n1, the IC50 was > 100 µM and the MIC90 was > 100 µM. In the case of Cc1nc(-c2ccc(F)cc2)oc1-c1csc(-c2ccccc2)n1, the IC50 is reported as > 100 µM and the MIC90 is reported as > 100 µM.

The molecules below were run on Escherichia coli (assay: Growth inhibition of Escherichia coli NCIM 2576 at 1 ug/ml measured after 8 hrs relative to control). Details: NCIM 2576, 8 h, read-out: GI.
Format: functional
Work on Cc1nc(-c2ccc(F)cc2)oc1-c1csc(-c2ccc(Br)cc2)n1 yielded an inhibition of growth at 1 µg/mL of 48.9%. Cc1nc(-c2ccc(F)cc2)oc1-c1csc(-c2ccccc2)n1 was tested, and the inhibition of growth at 1 µg/mL was 21.3%.

What follows are molecules tested on Mycobacterium tuberculosis (assay: Growth inhibition of Mycobacterium bovis BCG ATCC 35743 at 10 ug/ml by nitrate reductase based two-fold dilution assay relative to control). Details: BCG str. ATCC 35743, read-out: GI.
Format: functional
Molecule Cc1nc(-c2ccc(F)cc2)oc1-c1csc(-c2ccc(Br)cc2)n1 has an inhibition of growth at 10 µg/mL of 36%. Work on Cc1nc(-c2ccc(F)cc2)oc1-c1csc(-c2ccccc2)n1 yielded an inhibition of growth at 10 µg/mL of 32%.

Each molecule was assayed on Mycobacterium tuberculosis (assay: Antitubercular activity against Mycobacterium tuberculosis H37Ra ATCC 25177 dormant stage by XTT dye based two-fold dilution method). Details: not given.
Format: functional
For Cc1nc(-c2ccc(F)cc2)oc1-c1csc(-c2ccc(Br)cc2)n1, the IC50 was > 100 µM and the MIC90 was > 100 µM. For Cc1nc(-c2ccc(F)cc2)oc1-c1csc(-c2ccccc2)n1, the IC50 was > 100 µM and the MIC90 was > 100 µM.

Each molecule was assayed on Escherichia coli (assay: Growth inhibition of Escherichia coli NCIM 2576 at 30 ug/ml measured after 8 hrs relative to control). Details: NCIM 2576, 8 h, read-out: GI.
Format: functional
Cc1nc(-c2ccc(F)cc2)oc1-c1csc(-c2ccc(Br)cc2)n1 gave an inhibition of growth at 30 µg/mL of 69%. Molecule Cc1nc(-c2ccc(F)cc2)oc1-c1csc(-c2ccccc2)n1 has an inhibition of growth at 30 µg/mL of 50.7%.

Each molecule was assayed on Mycobacterium tuberculosis (assay: Growth inhibition of Mycobacterium bovis BCG ATCC 35743 at 30 ug/ml by nitrate reductase based two-fold dilution assay relative to control). Details: BCG str. ATCC 35743, read-out: GI.
Format: functional
Cc1nc(-c2ccc(F)cc2)oc1-c1csc(-c2ccc(Br)cc2)n1 gave an inhibition of growth at 30 µg/mL of 42%. Cc1nc(-c2ccc(F)cc2)oc1-c1csc(-c2ccccc2)n1 was tested, and the inhibition of growth at 30 µg/mL was 33%.

Each molecule was assayed on Mycobacterium tuberculosis (assay: Growth inhibition of Mycobacterium bovis BCG ATCC 35743 at 1 ug/ml by nitrate reductase based two-fold dilution assay relative to control). Details: BCG str. ATCC 35743, read-out: GI.
Format: functional
Work on Cc1nc(-c2ccc(F)cc2)oc1-c1csc(-c2ccc(Br)cc2)n1 yielded an inhibition of growth at 1 µg/mL of 28%. Cc1nc(-c2ccc(F)cc2)oc1-c1csc(-c2ccccc2)n1 was tested, and the inhibition of growth at 1 µg/mL was 28%.

The molecules below were run on Bacillus subtilis (assay: Growth inhibition of Bacillus subtilis NCIM 2162 at 30 ug/ml measured after 12 hrs relative to control). Details: NCIM 2162, 12 h, read-out: GI.
Format: functional
Cc1nc(-c2ccc(F)cc2)oc1-c1csc(-c2ccc(Br)cc2)n1 gave an inhibition of growth at 30 µg/mL of 68.2%. Cc1nc(-c2ccc(F)cc2)oc1-c1csc(-c2ccccc2)n1 showed an inhibition of growth at 30 µg/mL of 53.3%.

The molecules below were run on Bacillus subtilis (assay: Antibacterial activity against Bacillus subtilis NCIM 2162 measured after 12 hrs). Details: NCIM 2162, 12 h.
Format: functional
In the case of Cc1nc(-c2ccc(F)cc2)oc1-c1csc(-c2ccc(Br)cc2)n1, the MIC is reported as > 100 µM. Cc1nc(-c2ccc(F)cc2)oc1-c1csc(-c2ccccc2)n1 was tested, and the MIC was > 100 µM.

What follows are molecules tested on Staphylococcus aureus (assay: Growth inhibition of Staphylococcus aureus NCIM 2602 at 10 ug/ml measured after 12 hrs relative to control). Details: NCIM 2602, 12 h, read-out: GI.
Format: functional
Cc1nc(-c2ccc(F)cc2)oc1-c1csc(-c2ccc(Br)cc2)n1 showed an inhibition of growth at 10 µg/mL of 56.6%. Work on Cc1nc(-c2ccc(F)cc2)oc1-c1csc(-c2ccccc2)n1 yielded an inhibition of growth at 10 µg/mL of 40.7%.

The molecules below were run on Escherichia coli (assay: Antibacterial activity against Escherichia coli NCIM 2576 measured after 8 hrs). Details: NCIM 2576, 8 h.
Format: functional
For Cc1nc(-c2ccc(F)cc2)oc1-c1csc(-c2ccc(Br)cc2)n1, the MIC was > 100 µM. For Cc1nc(-c2ccc(F)cc2)oc1-c1csc(-c2ccccc2)n1, the MIC was > 100 µM.

What follows are molecules tested on Staphylococcus aureus (assay: Antibacterial activity against Staphylococcus aureus NCIM 2602 measured after 12 hrs). Details: NCIM 2602, 12 h.
Format: functional
In the case of Cc1nc(-c2ccc(F)cc2)oc1-c1csc(-c2ccc(Br)cc2)n1, the MIC is reported as > 100 µM. For Cc1nc(-c2ccc(F)cc2)oc1-c1csc(-c2ccccc2)n1, the MIC was > 100 µM.

What follows are molecules tested on Mycobacterium tuberculosis (assay: Growth inhibition of Mycobacterium tuberculosis H37Ra ATCC 25177 at 3 ug/ml by XTT dye based two-fold dilution method relative to control). Details: read-out: GI.
Format: functional
Cc1nc(-c2ccc(F)cc2)oc1-c1csc(-c2ccc(Br)cc2)n1 gave an inhibition of growth at 3 µg/mL of 43%. Cc1nc(-c2ccc(F)cc2)oc1-c1csc(-c2ccccc2)n1 showed an inhibition of growth at 3 µg/mL of 13%.

What follows are molecules tested on Mycobacterium tuberculosis (assay: Growth inhibition of Mycobacterium tuberculosis H37Ra ATCC 25177 at 30 ug/ml by XTT dye based two-fold dilution method relative to control). Details: read-out: GI.
Format: functional
Cc1nc(-c2ccc(F)cc2)oc1-c1csc(-c2ccc(Br)cc2)n1 gave an inhibition of growth at 30 µg/mL of 54%. Work on Cc1nc(-c2ccc(F)cc2)oc1-c1csc(-c2ccccc2)n1 yielded an inhibition of growth at 30 µg/mL of 31%.

What follows are molecules tested on Staphylococcus aureus (assay: Growth inhibition of Staphylococcus aureus NCIM 2602 at 1 ug/ml measured after 12 hrs relative to control). Details: NCIM 2602, 12 h, read-out: GI.
Format: functional
Cc1nc(-c2ccc(F)cc2)oc1-c1csc(-c2ccc(Br)cc2)n1 showed an inhibition of growth at 1 µg/mL of 44.1%. Cc1nc(-c2ccc(F)cc2)oc1-c1csc(-c2ccccc2)n1 gave an inhibition of growth at 1 µg/mL of 24%.

Each molecule was assayed on Mycobacterium tuberculosis (assay: Growth inhibition of Mycobacterium tuberculosis H37Ra ATCC 25177 at 10 ug/ml by XTT dye based two-fold dilution method relative to control). Details: read-out: GI.
Format: functional
Cc1nc(-c2ccc(F)cc2)oc1-c1csc(-c2ccc(Br)cc2)n1 showed an inhibition of growth at 10 µg/mL of 45%. Molecule Cc1nc(-c2ccc(F)cc2)oc1-c1csc(-c2ccccc2)n1 has an inhibition of growth at 10 µg/mL of 13%.

What follows are molecules tested on Pseudomonas fluorescens (assay: Antibacterial activity against Pseudomonas fluorescens NCIM 2059 measured after 8 hrs). Details: NCIM 2059, 8 h.
Format: functional
With Cc1nc(-c2ccc(F)cc2)oc1-c1csc(-c2ccc(Br)cc2)n1 the MIC was > 100 µM. With Cc1nc(-c2ccc(F)cc2)oc1-c1csc(-c2ccccc2)n1 the MIC was > 100 µM.

Each molecule was assayed on Bacillus subtilis (assay: Growth inhibition of Bacillus subtilis NCIM 2162 at 10 ug/ml measured after 12 hrs relative to control). Details: NCIM 2162, 12 h, read-out: GI.
Format: functional
For Cc1nc(-c2ccc(F)cc2)oc1-c1csc(-c2ccc(Br)cc2)n1, the inhibition of growth at 10 µg/mL was 51.8%. Molecule Cc1nc(-c2ccc(F)cc2)oc1-c1csc(-c2ccccc2)n1 has an inhibition of growth at 10 µg/mL of 47.8%.

The molecules below were run on Pseudomonas fluorescens (assay: Growth inhibition of Pseudomonas fluorescens NCIM 2059 at 10 ug/ml measured after 8 hrs relative to control). Details: NCIM 2059, 8 h, read-out: GI.
Format: functional
Cc1nc(-c2ccc(F)cc2)oc1-c1csc(-c2ccc(Br)cc2)n1 gave an inhibition of growth at 10 µg/mL of 54.2%. In the case of Cc1nc(-c2ccc(F)cc2)oc1-c1csc(-c2ccccc2)n1, the inhibition of growth at 10 µg/mL is reported as 41.9%.

The molecules below were run on Pseudomonas fluorescens (assay: Growth inhibition of Pseudomonas fluorescens NCIM 2059 at 30 ug/ml measured after 8 hrs relative to control). Details: NCIM 2059, 8 h, read-out: GI.
Format: functional
Cc1nc(-c2ccc(F)cc2)oc1-c1csc(-c2ccc(Br)cc2)n1 was tested, and the inhibition of growth at 30 µg/mL was 68.3%. Cc1nc(-c2ccc(F)cc2)oc1-c1csc(-c2ccccc2)n1 showed an inhibition of growth at 30 µg/mL of 53.1%.

These molecules were tested on Pseudomonas fluorescens (assay: Growth inhibition of Pseudomonas fluorescens NCIM 2059 at 1 ug/ml measured after 8 hrs relative to control). Details: NCIM 2059, 8 h, read-out: GI.
Format: functional
In the case of Cc1nc(-c2ccc(F)cc2)oc1-c1csc(-c2ccc(Br)cc2)n1, the inhibition of growth at 1 µg/mL is reported as 48.6%. Work on Cc1nc(-c2ccc(F)cc2)oc1-c1csc(-c2ccccc2)n1 yielded an inhibition of growth at 1 µg/mL of 22.4%.
